# Key:
# Test in all cases: combination Emax (second highest fraction inhibited in the dose matrix, 72 h); higher = more inhibition; extreme values may be limits of the assay
# [1] = test system: MFH-ino (Other Solid Carcinomas)
# Method in brief: (§1)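 Bliss excess equals the observed combination effect minus the expected value EA + EB − EA·EB, where EA and EB are the effects of each agent alone. Combination Emax is the second-highest inhibition within the matrix. Inhibition was scaled from CellTiter-Glo 2.0 luminescence, with 0 set by vehicle wells and 1 by blank wells, after 72 hours of two-drug dosing of cells plated in 1536-well plates.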
# [2] = test system: SW1990 (Pancreatic Carcinoma)
# Method in brief: as §1
# [3] = test system: MDA-MB-157 (Breast Carcinoma)
# Method in brief: as §1
# [4] = test system: DOV13 (Ovarian Carcinoma)
# Method in brief: as §1
# SK-N-FI (Neuroblastoma) = test system: SK-N-FI (Neuroblastoma)
# Method in brief: as §1
# CAL-78 (Chondrosarcoma) = test system: CAL-78 (Chondrosarcoma)
# Method in brief: as §1
# [5] = test system: HCC2157 (Breast Carcinoma)
# Method in brief: as §1
# [6] = test system: COR-L23 (Non-Small Cell Lung Carcinoma)
# Method in brief: as §1
# NCI-H2595 (Mesothelioma) = test system: NCI-H2595 (Mesothelioma)
# Method in brief: as §1
# [7] = test system: OCI-AML2 (Acute Myeloid Leukemia)
# Method in brief: as §1
# [8] = test system: CTV-1 (T-Lymphoblastic Leukemia)
# Method in brief: as §1
# [9] = test system: COR-L95 (Small Cell Lung Carcinoma)
# Method in brief: as §1
# [10] = test system: KARPAS-1106P (B-Cell Non-Hodgkin's Lymphoma)
# Method in brief: as §1
# DSH1 (Bladder Carcinoma) = test system: DSH1 (Bladder Carcinoma)
# Method in brief: as §1
# J82 (Bladder Carcinoma) = test system: J82 (Bladder Carcinoma)
# Method in brief: as §1
# [11] = test system: LS-513 (Colorectal Carcinoma)
# Method in brief: as §1
# [12] = test system: DB (B-Cell Non-Hodgkin's Lymphoma)
# Method in brief: as §1
# [13] = test system: TE-5 (Esophageal Squamous Cell Carcinoma)
# Method in brief: as §1
# [14] = test system: EM-2 (Chronic Myelogenous Leukemia)
# Method in brief: as §1
# [15] = test system: TGBC24TKB (Biliary Tract Carcinoma)
# Method in brief: as §1
SMILES,combination Emax [1],combination Emax [2],combination Emax [3],combination Emax [4],combination Emax (SK-N-FI (Neuroblastoma)),combination Emax (CAL-78 (Chondrosarcoma)),combination Emax [5],combination Emax [6],combination Emax (NCI-H2595 (Mesothelioma)),combination Emax [7],combination Emax [8],combination Emax [9],combination Emax [10],combination Emax (DSH1 (Bladder Carcinoma)),combination Emax (J82 (Bladder Carcinoma)),combination Emax [11],combination Emax [12],combination Emax [13],combination Emax [14],combination Emax [15]
"CN(CCO)CC[C@H](CSc1ccccc1)Nc1ccc(S(=O)(=O)NC(=O)c2ccc(N3CCC([C@@H](O)c4ccccc4-c4ccc(Cl)cc4)CC3)cc2)cc1S(=O)(=O)C(F)(F)F [AZD4320] + Cn1cnc2c(F)c(Nc3ccc(Br)cc3Cl)c(C(=O)NOCCO)cc21 [Selumetinib] (first compound max 1 µM, 7x7, partner max 3 µM)",0.421,0.557,0.366,0.747,0.554,0.557,0.923,0.442,0.275,1,0.706,1,0.769,0.565,0.245,0.941,0.953,0.597,0.971,0.791
"COc1nnc2ccc(N3CCC(c4ccc(OCCN5CCN(C)C(=O)[C@H]5C)cc4)CC3)nn12 [AZD5153] + Cn1cnc2c(F)c(Nc3ccc(Br)cc3Cl)c(C(=O)NOCCO)cc21 [Selumetinib] (first compound max 1 µM, 7x7, partner max 10 µM)",0.636,0.265,0.546,0.482,0.844,0.391,1,0.422,0.364,1,0.99,0.218,0.699,0.683,0.496,0.951,0.761,0.429,0.992,0.893
"NC1(C(=O)N[C@@H](CCO)c2ccc(Cl)cc2)CCN(c2ncnc3[nH]ccc23)CC1 [Capivasertib] + CCN(CCO)CCCOc1ccc2c(Nc3cc(CC(=O)Nc4cccc(F)c4)[nH]n3)ncnc2c1 [AZD2811] (first compound max 10 µM, 7x7, partner max 1 µM)",0.318,0.136,0.276,0.544,0.396,0.512,1,0.474,0.261,0.904,0.636,0.172,0.502,0.668,0.482,0.532,0.635,0.339,0.877,0.58
"Cc1c2c(nn1C)CSCc1cc(n(C)n1)CSc1cc(c3ccccc3c1)OCCCc1c(C(=O)O)n(C)c3c-2c(Cl)ccc13 [AZD5991] + Cc1cc2ncnn2cc1Nc1ncc2c(n1)n(C1CCOCC1)c(=O)n2C [AZD7648] (first compound max 1 µM, 7x7, partner max 10 µM)",0.348,0.218,0.708,0.458,0.414,0.782,0.984,0.131,0.291,0.967,0.29,0.315,0.939,0.67,0.187,0.319,0.995,0.356,0.446,0.243
"C[C@@H]1COCCN1c1cc(C2([S@](C)(=N)=O)CC2)nc(-c2ccnc3[nH]ccc23)n1 [AZD6738] + O=C(c1cc(Cc2n[nH]c(=O)c3ccccc23)ccc1F)N1CCN(C(=O)C2CC2)CC1 [Olaparib] (first compound max 10 µM, 7x7, partner max 10 µM)",0.576,0.471,0.85,0.915,0.701,0.616,0.907,0.42,0.214,0.988,0.916,0.517,0.672,0.752,0.344,0.722,0.736,0.442,0.984,0.693
"CC1(C)CCC(CN2CCN(c3ccc(C(=O)NS(=O)(=O)c4ccc(NCC5CCOCC5)c([N+](=O)[O-])c4)c(Oc4cnc5[nH]ccc5c4)c3)CC2)=C(c2ccc(Cl)cc2)C1 [Venetoclax] + C[C@@H](Nc1cc(F)cc(F)c1)c1cc(C(=O)N(C)C)cc2c(=O)cc(N3CCOCC3)oc12 [AZD8186] (first compound max 1 µM, 7x7, partner max 3 µM)",0.0981,0.452,0.546,0.306,0.243,0.212,0.919,0.054,0.163,1,0.372,0.782,0.796,0.282,0.14,0.491,0.943,0.375,0.256,0.169
"CC1(C)CCC(CN2CCN(c3ccc(C(=O)NS(=O)(=O)c4ccc(NCC5CCOCC5)c([N+](=O)[O-])c4)c(Oc4cnc5[nH]ccc5c4)c3)CC2)=C(c2ccc(Cl)cc2)C1 [Venetoclax] + CN(C)CCCOc1ccc(-c2ccc3ncc4c(c3c2)n(C2CCOCC2)c(=O)n4C)cn1 [AZD0156] (first compound max 1 µM, 7x7, partner max 1 µM)",0.171,0.674,0.596,0.326,0.217,0.248,0.377,0.147,0.177,0.993,0.0786,0.535,0.552,0.156,0.186,0.316,0.971,0.271,0.174,0.268
"NC1(C(=O)N[C@@H](CCO)c2ccc(Cl)cc2)CCN(c2ncnc3[nH]ccc23)CC1 [Capivasertib] + CC(=O)c1c(C)c2cnc(Nc3ccc(N4CCNCC4)cn3)nc2n(C2CCCC2)c1=O [Palbociclib] (first compound max 10 µM, 7x7, partner max 10 µM)",0.483,0.214,0.24,0.588,0.413,0.542,1,0.442,0.214,0.804,0.897,0.172,0.761,0.62,0.452,0.675,0.728,0.359,0.384,0.556
"CC1(C)CCC(CN2CCN(c3ccc(C(=O)NS(=O)(=O)c4ccc(NCC5CCOCC5)c([N+](=O)[O-])c4)c(Oc4cnc5[nH]ccc5c4)c3)CC2)=C(c2ccc(Cl)cc2)C1 [Venetoclax] + Cn1cnc2c(F)c(Nc3ccc(Br)cc3Cl)c(C(=O)NOCCO)cc21 [Selumetinib] (first compound max 1 µM, 7x7, partner max 3 µM)",0.201,0.49,0.546,0.157,0.471,0.146,0.278,0.2,0.129,1,0.293,0.572,0.476,0.341,0.122,0.717,0.914,0.107,0.424,0.293
"Cc1c2c(nn1C)CSCc1cc(n(C)n1)CSc1cc(c3ccccc3c1)OCCCc1c(C(=O)O)n(C)c3c-2c(Cl)ccc13 [AZD5991] + C[C@@H]1COCCN1C2=NC(=NC(=C2)C3(CC3)[S@](=N)(=O)C)C4=C5C=CNC5=NC=C4 [AZD6738] (first compound max 1 µM, 7x7, partner max 10 µM)",0.524,0.491,0.966,0.926,0.815,0.796,0.998,0.57,0.299,1,0.781,0.638,0.965,0.919,0.389,0.752,0.999,0.494,0.98,0.672
"CC1(C)CCC(CN2CCN(c3ccc(C(=O)NS(=O)(=O)c4ccc(NCC5CCOCC5)c([N+](=O)[O-])c4)c(Oc4cnc5[nH]ccc5c4)c3)CC2)=C(c2ccc(Cl)cc2)C1 [Venetoclax] + C=CCn1c(=O)c2cnc(Nc3ccc(N4CCN(C)CC4)cc3)nc2n1-c1cccc(C(C)(C)O)n1 [AZD1775] (first compound max 1 µM, partner max 1 µM)",0.184,0.783,0.905,0.912,0.713,0.51,0.782,0.602,0.189,1,0.992,0.862,0.917,0.48,0.177,0.697,1,0.451,0.949,0.52

# From the supplement of paper PMC11061612
